Among the data in the supplement of paper PMC10307832 are relative viability values, retold here.

Test in all cases: relative viability (nuclei count vs DMSO), 5 days (fraction); higher = more cells survive
Compound in one assay: COc1cc([C@@H]2c3cc4c(cc3[C@@H](O[C@@H]3O[C@@H]5CO[C@@H](C)O[C@H]5[C@H](O)[C@H]3O)[C@H]3COC(=O)[C@H]23)OCO4)cc(OC)c1O [Etoposide]
The method in brief: (§1)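 In 1536-well plates, lung cancer cell lines rested overnight at 37 °C before five library-drug doses (not always all listed), √10 apart, were pinned onto vehicle-anchored plates. Nuclei were counted with MetaXpress from 4× Hoechst images taken after 5 days without medium change. Viability compares treated-well with vehicle-well nuclei as a median over plates, and plates needed control CV below 25% plus at least one doubling to pass.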

Compound in a further assay: CC1=C(N=C(N=C1N)[C@H](CC(=O)N)NC[C@@H](C(=O)N)N)C(=O)N[C@@H]([C@H](C2=CN=CN2)OC3C(C(C(C(O3)CO)O)O)OC4C(C(C(C(O4)CO)O)OC(=O)N)O)C(=O)N[C@H](C)[C@H]([C@H](C)C(=O)N[C@@H]([C@@H](C)O)C(=O)NCCC5=NC(=CS5)C6=NC(=CS6)C(=O)NCCC[S+](C)C)O [Bleomycin]
To be noted: main component drawn. A digest of the protocol:
as §1

Compound in the assay “Etoposide + Pemetrexed”: COc1cc([C@@H]2c3cc4c(cc3[C@@H](O[C@@H]3O[C@@H]5CO[C@@H](C)O[C@H]5[C@H](O)[C@H]3O)[C@H]3COC(=O)[C@H]23)OCO4)cc(OC)c1O [Etoposide] + Nc1nc2[nH]cc(CCc3ccc(C(=O)N[C@@H](CCC(=O)O)C(=O)O)cc3)c2c(=O)[nH]1 [Pemetrexed] (partner 0.2 µM)
The method in brief: (§2)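 Each reported value is a median over duplicate plates. It expresses relative viability: treated-well nuclei count divided by vehicle-well nuclei count. Lung cancer cell lines in 1536-well plates were dosed by pin tool a day after seeding, alone with one drug or with a fixed anchor-drug dose plus five library-drug doses (not always all listed) in √10 steps, and nuclei were counted after 5 days.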

Compound in the assay “Bleomycin + Alpelisib”: CC1=C(N=C(N=C1N)[C@H](CC(=O)N)NC[C@@H](C(=O)N)N)C(=O)N[C@@H]([C@H](C2=CN=CN2)OC3C(C(C(C(O3)CO)O)O)OC4C(C(C(C(O4)CO)O)OC(=O)N)O)C(=O)N[C@H](C)[C@H]([C@H](C)C(=O)N[C@@H]([C@@H](C)O)C(=O)NCCC5=NC(=CS5)C6=NC(=CS6)C(=O)NCCC[S+](C)C)O [Bleomycin] + Cc1nc(NC(=O)N2CCC[C@H]2C(N)=O)sc1-c1ccnc(C(C)(C)C(F)(F)F)c1 [Alpelisib] (partner 2 µM)
To be noted: main component drawn. The method in brief: as §2

Regarding NCI-H23, the relative viability came to 1.02 with Etoposide (0.01 µM); 1.03 with Etoposide (0.03162 µM); 0.671 in the assay with Etoposide (0.1 µM); 0.371 with Etoposide (0.3162 µM); 0.212 in the assay with Etoposide (1 µM); 0.458 with Bleomycin (0.01 µM). Further, the relative viability turned out to be 0.439 with Bleomycin (0.03162 µM); 0.304 with Bleomycin (0.1 µM); 0.218 with Bleomycin (0.3162 µM); 0.161 with Bleomycin (1 µM); 0.659 with Etoposide + Pemetrexed (first compound 0.01 µM); 0.697 with Etoposide + Pemetrexed (first compound 0.03162 µM). The relative viability with Etoposide + Pemetrexed (first compound 0.1 µM) is 0.472; with Etoposide + Pemetrexed (first compound 0.3162 µM), 0.411; with Etoposide + Pemetrexed (first compound 1 µM) it was 0.216; with Bleomycin + Alpelisib (first compound 0.01 µM), 0.327; with Bleomycin + Alpelisib (first compound 0.03162 µM) it was 0.298; with Bleomycin + Alpelisib (first compound 0.1 µM), 0.192. Moreover, the relative viability in the assay with Bleomycin + Alpelisib (first compound 0.3162 µM) worked out at 0.127; with Bleomycin + Alpelisib (first compound 1 µM), 0.122.

On to NCI-H1563, for which the relative viability is 0.816 in the assay with Etoposide (0.01 µM); 0.974 with Etoposide (0.03162 µM); 0.791 with Etoposide (0.1 µM); 0.641 in the assay with Etoposide (0.3162 µM); 0.55 with Etoposide (1 µM); 0.843 with Bleomycin (0.01 µM). Further, the relative viability was found to be 0.836 with Bleomycin (0.03162 µM); 0.783 with Bleomycin (0.1 µM); 0.625 in the assay with Bleomycin (0.3162 µM); 0.652 with Bleomycin (1 µM); 0.693 with Etoposide + Pemetrexed (first compound 0.01 µM); 0.806 with Etoposide + Pemetrexed (first compound 0.03162 µM). In addition, the relative viability was 0.547 in the assay with Etoposide + Pemetrexed (first compound 0.1 µM); 0.425 with Etoposide + Pemetrexed (first compound 0.3162 µM); 0.371 with Etoposide + Pemetrexed (first compound 1 µM); 0.831 with Bleomycin + Alpelisib (first compound 0.01 µM); 0.707 in the assay with Bleomycin + Alpelisib (first compound 0.03162 µM); 0.678 in the assay with Bleomycin + Alpelisib (first compound 0.1 µM). The relative viability with Bleomycin + Alpelisib (first compound 0.3162 µM) stood at 0.613; with Bleomycin + Alpelisib (first compound 1 µM) it was 0.572.

In the case of NCI-H1793, the relative viability was found to be 0.813 with Etoposide (0.01 µM); 1.12 in the assay with Etoposide (0.03162 µM); 0.758 in the assay with Etoposide (0.3162 µM); 0.334 with Etoposide (1 µM); 0.817 with Bleomycin (0.01 µM); 0.772 with Bleomycin (0.03162 µM). The relative viability is 0.754 with Bleomycin (0.1 µM); 0.293 in the assay with Bleomycin (0.3162 µM); 0.226 with Bleomycin (1 µM); 0.97 in the assay with Etoposide + Pemetrexed (first compound 0.03162 µM); 0.458 in the assay with Etoposide + Pemetrexed (first compound 0.1 µM); 0.629 in the assay with Etoposide + Pemetrexed (first compound 0.3162 µM). The relative viability with Etoposide + Pemetrexed (first compound 1 µM) was 0.226; in the assay with Bleomycin + Alpelisib (first compound 0.01 µM) it was 0.695; with Bleomycin + Alpelisib (first compound 0.03162 µM), 0.783; in the assay with Bleomycin + Alpelisib (first compound 0.1 µM), 0.612; with Bleomycin + Alpelisib (first compound 0.3162 µM), 0.171; with Bleomycin + Alpelisib (first compound 1 µM) it was 0.176.

Consider EKVX, for which the relative viability with Etoposide (0.01 µM) amounted to 0.998; with Etoposide (0.03162 µM) it was 1.01; with Etoposide (0.1 µM), 0.637; with Etoposide (0.3162 µM) it was 0.741; with Etoposide (1 µM), 0.377; with Bleomycin (0.01 µM), 0.928. For the same cell line, the relative viability with Bleomycin (0.03162 µM) came out at 0.898; with Bleomycin (0.1 µM) it was 0.797; with Bleomycin (0.3162 µM), 0.374; with Bleomycin (1 µM), 0.321; with Etoposide + Pemetrexed (first compound 0.01 µM) it was 0.351; in the assay with Etoposide + Pemetrexed (first compound 0.03162 µM) it was 0.443. Further, the relative viability is 0.344 in the assay with Etoposide + Pemetrexed (first compound 0.1 µM); 0.285 with Etoposide + Pemetrexed (first compound 0.3162 µM); 0.248 in the assay with Etoposide + Pemetrexed (first compound 1 µM); 0.894 with Bleomycin + Alpelisib (first compound 0.01 µM); 0.738 with Bleomycin + Alpelisib (first compound 0.03162 µM); 0.683 with Bleomycin + Alpelisib (first compound 0.1 µM). Besides, the relative viability with Bleomycin + Alpelisib (first compound 0.3162 µM) worked out at 0.345; with Bleomycin + Alpelisib (first compound 1 µM) it was 0.37.

For the cell line HOP-62, the relative viability with Etoposide (0.01 µM) worked out at 1.06; in the assay with Etoposide (0.03162 µM) it was 1.11; with Etoposide (0.1 µM), 0.824; with Etoposide (0.3162 µM) it was 0.712; with Etoposide (1 µM), 0.372; in the assay with Bleomycin (0.01 µM), 0.47. The relative viability with Bleomycin (0.03162 µM) was 0.473; with Bleomycin (0.1 µM) it was 0.257; in the assay with Bleomycin (0.3162 µM) it was 0.183; with Bleomycin (1 µM) it was 0.107; with Etoposide + Pemetrexed (first compound 0.01 µM) it was 0.389; with Etoposide + Pemetrexed (first compound 0.03162 µM), 0.361. The relative viability came out at 0.378 in the assay with Etoposide + Pemetrexed (first compound 0.1 µM); 0.318 with Etoposide + Pemetrexed (first compound 0.3162 µM); 0.243 with Etoposide + Pemetrexed (first compound 1 µM); 0.412 in the assay with Bleomycin + Alpelisib (first compound 0.01 µM); 0.458 in the assay with Bleomycin + Alpelisib (first compound 0.03162 µM); 0.185 in the assay with Bleomycin + Alpelisib (first compound 0.1 µM). The relative viability is 0.116 in the assay with Bleomycin + Alpelisib (first compound 0.3162 µM) and 0.13 with Bleomycin + Alpelisib (first compound 1 µM).

Regarding NCI-H2228, the relative viability amounted to 0.926 with Etoposide (0.01 µM); 1.1 in the assay with Etoposide (0.03162 µM); 0.7 in the assay with Etoposide (0.1 µM); 0.582 with Etoposide (0.3162 µM); 0.195 with Etoposide (1 µM); 0.902 in the assay with Bleomycin (0.01 µM). Moreover, the relative viability with Bleomycin (0.03162 µM) was 1.01; with Bleomycin (0.1 µM), 0.899; with Bleomycin (0.3162 µM) it was 0.559; in the assay with Bleomycin (1 µM) it was 0.311; with Etoposide + Pemetrexed (first compound 0.01 µM), 0.375; in the assay with Etoposide + Pemetrexed (first compound 0.03162 µM), 0.358. Moreover, the relative viability came out at 0.355 with Etoposide + Pemetrexed (first compound 0.1 µM); 0.299 with Etoposide + Pemetrexed (first compound 0.3162 µM); 0.181 with Etoposide + Pemetrexed (first compound 1 µM); 0.905 in the assay with Bleomycin + Alpelisib (first compound 0.01 µM); 0.959 with Bleomycin + Alpelisib (first compound 0.03162 µM); 0.696 with Bleomycin + Alpelisib (first compound 0.1 µM). In addition, the values for the relative viability in the assay with Bleomycin + Alpelisib (first compound 0.3162 µM) and with Bleomycin + Alpelisib (first compound 1 µM) were 0.341 and 0.376, respectively.

Regarding NCI-H358, the relative viability with Etoposide (0.01 µM) worked out at 0.985; in the assay with Etoposide (0.03162 µM), 0.982; in the assay with Etoposide (0.1 µM) it was 0.564; with Etoposide (0.3162 µM), 0.302; with Etoposide (1 µM), 0.17; with Bleomycin (0.01 µM) it was 0.879. In addition, the relative viability in the assay with Bleomycin (0.03162 µM) was found to be 0.944; with Bleomycin (0.1 µM) it was 0.829; with Bleomycin (0.3162 µM), 0.445; with Bleomycin (1 µM), 0.428; with Etoposide + Pemetrexed (first compound 0.01 µM) it was 0.179; with Etoposide + Pemetrexed (first compound 0.03162 µM), 0.186. Further, the relative viability with Etoposide + Pemetrexed (first compound 0.1 µM) came to 0.178; with Etoposide + Pemetrexed (first compound 0.3162 µM), 0.168; in the assay with Etoposide + Pemetrexed (first compound 1 µM) it was 0.157; with Bleomycin + Alpelisib (first compound 0.01 µM) it was 0.889; in the assay with Bleomycin + Alpelisib (first compound 0.03162 µM) it was 0.799; with Bleomycin + Alpelisib (first compound 0.1 µM) it was 0.712. Further, the relative viability in the assay with Bleomycin + Alpelisib (first compound 0.3162 µM) came out at 0.481; with Bleomycin + Alpelisib (first compound 1 µM) it was 0.349.
